For assay [1], the target named is T1, Chloramphenicol acetyltransferase (Staphylococcus epidermidis) (UniProt D2JCN2).
T1 sequence (whole entry): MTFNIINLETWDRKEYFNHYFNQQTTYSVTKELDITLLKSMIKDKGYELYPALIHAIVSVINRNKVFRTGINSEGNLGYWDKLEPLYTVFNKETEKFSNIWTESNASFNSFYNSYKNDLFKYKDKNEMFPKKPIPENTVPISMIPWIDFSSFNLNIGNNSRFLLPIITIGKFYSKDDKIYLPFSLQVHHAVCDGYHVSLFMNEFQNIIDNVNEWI
As to the kind of experiment: Activation of Chloramphenicol acetyltransferase activity in Staphylococcus epidermidis Tu3298 at 200 nM and measured every 15 sec for 20 mins (reference value: 12.5 U/mg).

Assay [2] is described as follows: Inhibition of AgrC-1 in Staphylococcus aureus AH1677 incubated for 24 hrs by fluorescence assay.
Assay [3] can be described thus: Inhibition of AgrC-2 in Staphylococcus aureus AH430 incubated for 24 hrs by fluorescence assay.
Assay [4] is described as follows: Inhibition of AgrC-4 in Staphylococcus aureus AH1872 incubated for 24 hrs by fluorescence assay.
Assay [5] in a line: Inhibition of AgrC-3 in Staphylococcus aureus AH1747 incubated for 24 hrs by fluorescence assay.
Assay [6] is described as follows: Inhibition of AgrC-1 in Staphylococcus aureus RN9222 incubated for 1 hr in presence of AIP agonist by beta-lactamase reporter gene assay.
Assay [7] can be described thus: Inhibition of AgrC-2 in Staphylococcus aureus RN9372 incubated for 1 hr in presence of AIP agonist by beta-lactamase reporter gene assay. (In a reporter assay the amount or activity of a reporter protein is the signal.)

Where a SMILES comes first, the peptide text is derived from it. Bridges are numbered along the chain shown (N, C = ends). [ ]: non-standard residue; d: D form. The star is where a group is joined. NMeF = CN[C@@H](Cc1ccccc1)C(=O)O; NMeL = CN[C@@H](CC(C)C)C(=O)O; NMeS = CN[C@@H](CO)C(=O)O; Pent4ynoyl = C#CCCC(=O)*; Dap = NC[C@H](N)C(=O)O; AEEA = NCCOCCOCC(=O)O; Aoc = NCCCCCCCC(=O)O; Ava = NCCCCC(=O)O; Mpa = O=C(O)CCS Where only a bound is given, the exact number is not on record here.

With `CC(C)[C@H](NC(=O)[C@H](CO)NC(=O)[C@H](CC(=O)O)NC(=O)CN)C(=O)N[C@H]1CSC(=O)[C@H](Cc2ccccc2)NC(=O)[C@H](Cc2ccc(O)cc2)NC(=O)[C@H](CO)NC(=O)[C@H](C)NC1=O` (H-GDSVCASYF; thioester 5-C), the Activity in assay [1] worked out at 15.6 U/mg.

In general, IC50 refers to the concentration at which inhibition is half-maximal. As for `CC(=O)N[C@H]1CSC(=O)[C@H](Cc2ccccc2)NC(=O)[C@H](Cc2ccccc2)NC(=O)COCCOCCNC1=O` (Ac-C[AEEA]FF; thioester 1-C), the IC50 in assay [2] came to 181 nM; in assay [3], 583 nM; in assay [4] it was 5940 nM; in assay [5], 332 nM.

Consider `CC(=O)N[C@H]1CSC(=O)[C@H](Cc2ccccc2)NC(=O)[C@H](Cc2ccccc2)NC(=O)CCCCCCCNC1=O` (Ac-C[Aoc]FF; thioester 1-C), for which the IC50 in assay [2] was determined as 340 nM; in assay [3] it was 495 nM; in assay [4] it was 985 nM; in assay [5], 34.8 nM.

With `CC(C)[C@H](NC(=O)[C@@H](N)CO)C(=O)N[C@H]1CSC(=O)[C@H](Cc2ccccc2)NC(=O)[C@H](Cc2ccc(O)cc2)NC(=O)[C@H](CO)NC(=O)[C@H](C)NC1=O` (H-SVCASYF; thioester 3-C), the Activity in assay [1] amounted to 16.1 U/mg.

Take `CC(=O)N[C@H]1CSC(=O)[C@H](Cc2ccccc2)NC(=O)[C@H](CC(C)C)NC(=O)[C@H](CO)NC(=O)[C@H](CO)N(C)C1=O` (Ac-C[NMeS]SLF; thioester 1-C): the IC50 in assay [6] came to 639 nM; in assay [7], 7880 nM.

With `CC(=O)N[C@H]1CSC(=O)[C@H](Cc2ccccc2)NC(=O)[C@H](CC(C)C)NC(=O)[C@H](CO)NC(=O)CNC1=O` (Ac-CGSLF; thioester 1-C), the figures for the IC50 in assay [6] and in assay [7] were 189 nM and 1160 nM, respectively.

Consider `CC(=O)N[C@@H]1C/C=C\[C@H](Cc2ccccc2)NC(=O)[C@H](CC(C)C)NC(=O)[C@H](CO)NC(=O)[C@H](CO)NC1=O`, for which the IC50 in assay [2], in assay [3], in assay [4] and in assay [5] was above 10000 nM throughout.

As for `CC(=O)N[C@H]1CNC(=O)[C@H](Cc2ccccc2)NC(=O)[C@H](Cc2ccccc2)NC(=O)COCCOCCNC1=O` (Ac-[Dap][AEEA]FF; lactam 1-C), the IC50 in assay [2], in assay [3], in assay [4] and in assay [5] was above 10000 nM throughout.

As for `CC(=O)N[C@H]1CSC(=O)[C@H](Cc2ccccc2)NC(=O)[C@H](CC(C)C)NC(=O)[C@H](CO)N(C)C(=O)[C@H](CO)NC1=O` (Ac-CS[NMeS]LF; thioester 1-C), the IC50 in assay [6] was 319 nM; in assay [7], 1050 nM.

With `CC[C@H](C)[C@H](N)C(=O)N[C@@H](CC(N)=O)C(=O)N[C@H]1CNC(=O)[C@H](CC(C)C)NC(=O)[C@H](CC(C)C)NC(=O)[C@H](Cc2ccccc2)NC(=O)[C@H](CC(=O)O)NC1=O` (H-IN[Dap]DFLL; lactam 3-C), the IC50 in assay [2] was above 1000 nM; in assay [3], above 1000 nM; in assay [4] it was 299 nM; in assay [5], 75.2 nM.

Consider H-DSVCASYF-OH, for which the Activity in assay [1] came out at 9.8 U/mg.

For the compound `O=C1COCCOCCNC(=O)[C@H](NC(=O)Cc2ccccc2)CSC(=O)[C@H](Cc2cccc(F)c2)NC(=O)[C@H](CC2CCCC2)N1`, the IC50 in assay [2] turned out to be 2.01 nM; in assay [3], 17.9 nM; in assay [4] it was 4.75 nM; in assay [5], 0.0918 nM.

For the compound `CC(=O)N[C@H]1CSC(=O)[C@H](Cc2ccccc2)N(C)C(=O)[C@H](CC(C)C)NC(=O)[C@H](CO)NC(=O)[C@H](CO)NC1=O` (Ac-CSSL[NMeF]; thioester 1-C), the IC50 in assay [6] and in assay [7] was above 30000 nM throughout.

`CC(=O)N[C@H]1CSC(=O)[C@H](Cc2ccccc2)N(C)C(=O)[C@H](CC(C)C)NC(=O)CCCCNC1=O` (Ac-C[Ava]L[NMeF]; thioester 1-C): the IC50 in assay [6] was determined as 1140 nM; in assay [7], 50700 nM.

On to `CC(C)C[C@@H]1NC(=O)[C@H](CO)NC(=O)[C@H](CO)NC(=O)CCSC(=O)[C@H](Cc2ccccc2)N(C)C1=O` ([Mpa]SSL[NMeF]; thioester 1-C), for which the IC50 was 0.257 nM in assay [2]; 1680 nM in assay [6]; 0.9 nM in assay [3]; 0.0957 nM in assay [4]; 47300 nM in assay [7]; 0.329 nM in assay [5].

Turning to H-SVCASYF-OH, in assay [1], the Activity worked out at 8.9 U/mg.

Consider `O=C1COCCOCCNC(=O)[C@H](NC(=O)Cc2ccccc2)CSC(=O)[C@H](Cc2cccc(Cl)c2)NC(=O)[C@H](CC2CCCC2)N1`, for which the IC50 in assay [2] was 4.88 nM; in assay [3], 6.47 nM; in assay [4], 3.87 nM; in assay [5], 0.387 nM.

In assay [1], H-GDSVCASYF-OH returned an Activity of 11.2 U/mg.

As to `CC(C)C[C@@H]1NC(=O)[C@H](CC(C)C)NC(=O)[C@H](Cc2ccccc2)NC(=O)[C@H](C)NC(=O)[C@@H](N)CNC1=O` (H-[Dap]AFLL; lactam 1-C), the IC50 amounted to 1.5 nM in assay [2], 13.9 nM in assay [3], 0.189 nM in assay [4] and 0.216 nM in assay [5].

As for `CC(=O)N[C@H]1CNC(=O)[C@H](Cc2ccccc2)N(C)C(=O)[C@H](CC(C)C)NC(=O)[C@H](CO)NC(=O)[C@H](CO)NC1=O` (Ac-[Dap]SSL[NMeF]; lactam 1-C), the IC50 in assay [6] amounted to 1390 nM; in assay [7], 167000 nM.

As to `CC(=O)N[C@H]1CSC(=O)[C@H](Cc2ccccc2)NC(=O)[C@H](CC(C)C)N(C)C(=O)[C@H](CO)NC(=O)[C@H](CO)NC1=O` (Ac-CSS[NMeL]F; thioester 1-C), the IC50 in assay [6] and in assay [7] was above 30000 nM throughout.

For the compound `CC(=O)N[C@H]1CNC(=O)[C@H](Cc2ccccc2)NC(=O)[C@H](Cc2ccccc2)NC(=O)CCCCCCCCNC1=O`, the IC50 is 4740 nM in assay [2], 1340 nM in assay [3] and 2610 nM in assay [5].

For `CC(=O)N[C@H]1CNC(=O)[C@H](Cc2ccccc2)NC(=O)[C@H](Cc2ccccc2)NC(=O)CCCCCCCNC1=O` (Ac-[Dap][Aoc]FF; lactam 1-C), the IC50 in assay [2] amounted to 3940 nM; in assay [3], 2200 nM; in assay [5], 573 nM.

`C#CCCC(=O)N[C@H](C(=O)N[C@@H](CC(N)=O)C(=O)N[C@H]1CSC(=O)[C@H](CC(C)C)NC(=O)[C@H](CC(C)C)NC(=O)[C@H](Cc2ccccc2)NC(=O)[C@H](C)NC1=O)[C@@H](C)CC` (Pent4ynoyl-INCAFLL; thioester 3-C): the IC50 in assay [2] is 1000 nM; in assay [3], above 1000 nM; in assay [4] it was above 1000 nM; in assay [5] it was above 1000 nM.

Take `CC(=O)N[C@H]1CSC(=O)[C@H](Cc2ccccc2)NC(=O)[C@H](Cc2ccccc2)NC(=O)CCCCCCCCNC1=O`: the IC50 in assay [2] stood at 468 nM; in assay [3], 479 nM; in assay [4] it was 3490 nM; in assay [5] it was 125 nM.

Take `CC(=O)N[C@H]1CSC(=O)[C@H](Cc2ccccc2)NC(=O)[C@H](CC(C)C)NC(=O)[C@H](CO)NC(=O)[C@H](CO)NC1=O` (Ac-CSSLF; thioester 1-C): the IC50 was found to be 101 nM in assay [2], 97 nM in assay [3], 140 nM in assay [4] and 9.3 nM in assay [5].
